# Values of other authors in patent US9125916B2, “Methods of treating hypertrophic cardiomyopathy” (Gilead Sciences, Inc., priority 2013, dated 2015).
# Tested on: human cardiac tissue derived from patients with symptomatic HCM
# Conditions: Circulation 2013, 127 (5):575-584
smiles,measurement,value
COc1ccccc1OCC(O)CN1CCN(CC(=O)Nc2c(C)cccc2C)CC1 (stereo not shown) [ranolazine],effect of inhibition of late INa on electrical and mechanical abnormalities characteristic of HCM,reverse multiple electrical and mechanical abnormalities characteristic of the disease
